Experimental data from ChEMBL document CHEMBL5126633, “Developing HDAC4-Selective Protein Degraders To Investigate the Role of HDAC4 in Huntington's Disease Pathology” (J Med Chem, 2022).
Values after ≈ are worked out from the molar mass of the structure shown. Active and inactive are the calls of the source. No cut-off for these calls is given here.

Tests used:
Histone deacetylase 4 = Histone deacetylase 4 (Homo sapiens, UniProt P56524); assay: Inhibition of recombinant HDAC4 (unknown origin) using Boc-Lys(TFA)-AMC as substrate by fluorescence based plate reader assay
Sequence of Histone deacetylase 4 (P56524 whole entry): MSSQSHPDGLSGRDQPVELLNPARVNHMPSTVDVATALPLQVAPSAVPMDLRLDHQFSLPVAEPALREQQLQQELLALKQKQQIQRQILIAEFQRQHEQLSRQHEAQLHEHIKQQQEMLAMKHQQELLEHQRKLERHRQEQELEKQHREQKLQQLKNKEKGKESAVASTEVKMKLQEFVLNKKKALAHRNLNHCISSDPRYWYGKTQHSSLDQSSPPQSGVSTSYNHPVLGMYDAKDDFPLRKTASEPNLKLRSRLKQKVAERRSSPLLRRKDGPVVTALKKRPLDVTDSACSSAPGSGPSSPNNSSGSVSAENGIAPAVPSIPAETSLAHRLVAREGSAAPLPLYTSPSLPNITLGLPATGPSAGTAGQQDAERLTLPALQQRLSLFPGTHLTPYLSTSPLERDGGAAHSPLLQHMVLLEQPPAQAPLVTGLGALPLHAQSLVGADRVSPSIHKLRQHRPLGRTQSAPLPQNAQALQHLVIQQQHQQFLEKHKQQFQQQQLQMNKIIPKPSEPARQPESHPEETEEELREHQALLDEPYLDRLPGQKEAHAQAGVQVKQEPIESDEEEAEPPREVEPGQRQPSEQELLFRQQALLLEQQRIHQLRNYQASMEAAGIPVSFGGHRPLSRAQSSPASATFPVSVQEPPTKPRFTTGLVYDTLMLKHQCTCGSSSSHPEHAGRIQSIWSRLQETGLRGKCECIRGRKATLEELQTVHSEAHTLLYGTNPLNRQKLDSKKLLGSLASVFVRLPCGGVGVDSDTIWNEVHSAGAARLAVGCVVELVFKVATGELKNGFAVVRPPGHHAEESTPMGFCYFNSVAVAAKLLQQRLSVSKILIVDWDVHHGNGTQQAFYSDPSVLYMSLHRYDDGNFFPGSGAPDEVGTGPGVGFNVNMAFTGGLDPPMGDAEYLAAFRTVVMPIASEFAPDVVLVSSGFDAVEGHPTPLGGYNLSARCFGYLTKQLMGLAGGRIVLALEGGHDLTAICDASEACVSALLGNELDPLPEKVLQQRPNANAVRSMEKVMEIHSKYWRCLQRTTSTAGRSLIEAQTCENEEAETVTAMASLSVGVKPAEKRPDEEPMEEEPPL

Histone deacetylase 5 = Histone deacetylase 5 (Homo sapiens, UniProt Q9UQL6); assay: Inhibition of recombinant HDAC5 (unknown origin) using Boc-Lys(TFA)-AMC as substrate by fluorescence based plate reader assay
Sequence of Histone deacetylase 5 (Q9UQL6 whole entry): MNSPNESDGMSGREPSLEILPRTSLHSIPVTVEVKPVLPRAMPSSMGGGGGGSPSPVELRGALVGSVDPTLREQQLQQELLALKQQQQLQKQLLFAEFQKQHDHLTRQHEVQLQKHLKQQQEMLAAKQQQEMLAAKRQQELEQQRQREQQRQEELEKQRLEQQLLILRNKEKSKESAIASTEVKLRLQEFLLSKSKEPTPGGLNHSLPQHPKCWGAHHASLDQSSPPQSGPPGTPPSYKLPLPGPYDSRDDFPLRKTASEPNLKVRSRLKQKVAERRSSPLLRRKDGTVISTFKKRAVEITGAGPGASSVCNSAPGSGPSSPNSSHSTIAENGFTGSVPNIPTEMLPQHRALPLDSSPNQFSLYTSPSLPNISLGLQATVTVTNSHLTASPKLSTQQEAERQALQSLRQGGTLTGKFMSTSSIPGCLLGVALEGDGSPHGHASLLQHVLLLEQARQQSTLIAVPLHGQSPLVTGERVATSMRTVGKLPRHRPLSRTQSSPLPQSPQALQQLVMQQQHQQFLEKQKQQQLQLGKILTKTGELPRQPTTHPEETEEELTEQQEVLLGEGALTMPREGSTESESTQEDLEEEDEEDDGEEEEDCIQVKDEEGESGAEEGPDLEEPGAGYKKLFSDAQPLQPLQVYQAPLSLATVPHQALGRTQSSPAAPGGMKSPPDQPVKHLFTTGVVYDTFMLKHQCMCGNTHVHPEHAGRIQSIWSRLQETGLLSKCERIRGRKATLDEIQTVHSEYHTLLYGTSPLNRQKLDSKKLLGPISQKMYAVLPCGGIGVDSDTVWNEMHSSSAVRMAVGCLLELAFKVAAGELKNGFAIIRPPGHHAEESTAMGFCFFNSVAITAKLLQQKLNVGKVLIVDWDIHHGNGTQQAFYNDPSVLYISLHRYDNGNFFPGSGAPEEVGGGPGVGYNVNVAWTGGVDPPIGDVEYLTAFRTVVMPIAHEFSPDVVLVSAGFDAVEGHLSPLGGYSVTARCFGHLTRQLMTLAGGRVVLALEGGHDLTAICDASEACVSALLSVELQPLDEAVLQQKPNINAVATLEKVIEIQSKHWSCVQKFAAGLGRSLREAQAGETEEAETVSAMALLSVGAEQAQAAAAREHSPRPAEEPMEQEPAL

Histone deacetylase 7 = target: T1, Histone deacetylase 7 (Homo sapiens, UniProt Q8WUI4); assay: Inhibition of recombinant HDAC7 (unknown origin) using Boc-Lys(TFA)-AMC as substrate by fluorescence based plate reader assay
T1 sequence (Q8WUI4 whole entry): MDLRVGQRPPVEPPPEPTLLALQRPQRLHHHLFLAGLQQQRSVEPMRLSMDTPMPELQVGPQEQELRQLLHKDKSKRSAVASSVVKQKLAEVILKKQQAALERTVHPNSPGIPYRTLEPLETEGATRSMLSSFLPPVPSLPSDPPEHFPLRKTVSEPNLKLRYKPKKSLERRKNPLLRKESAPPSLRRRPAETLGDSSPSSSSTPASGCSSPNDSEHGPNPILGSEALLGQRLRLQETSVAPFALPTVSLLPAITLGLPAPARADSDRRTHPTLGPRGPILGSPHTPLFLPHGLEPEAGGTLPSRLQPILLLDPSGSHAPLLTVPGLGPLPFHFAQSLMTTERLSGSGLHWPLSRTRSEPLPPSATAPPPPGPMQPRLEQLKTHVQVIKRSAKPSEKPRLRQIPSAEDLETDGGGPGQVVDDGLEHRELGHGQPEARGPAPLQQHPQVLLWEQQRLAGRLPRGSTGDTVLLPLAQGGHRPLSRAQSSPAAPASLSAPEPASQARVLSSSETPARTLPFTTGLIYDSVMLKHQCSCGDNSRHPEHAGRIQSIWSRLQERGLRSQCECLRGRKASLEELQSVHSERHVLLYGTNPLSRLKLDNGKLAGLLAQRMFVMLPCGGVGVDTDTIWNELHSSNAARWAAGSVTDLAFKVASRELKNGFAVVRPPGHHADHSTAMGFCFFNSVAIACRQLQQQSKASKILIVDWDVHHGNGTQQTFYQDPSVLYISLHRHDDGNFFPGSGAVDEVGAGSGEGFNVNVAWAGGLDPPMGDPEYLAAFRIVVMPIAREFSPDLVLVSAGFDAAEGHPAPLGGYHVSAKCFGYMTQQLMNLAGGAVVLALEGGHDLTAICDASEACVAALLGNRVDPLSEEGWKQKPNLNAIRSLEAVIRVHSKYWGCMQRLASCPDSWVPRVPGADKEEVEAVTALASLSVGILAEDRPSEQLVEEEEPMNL

[1] = Inhibition of class 2a HDAC in human Jurkat E6.1 cells using Boc-Lys(TFA)-AMC as substrate incubated for 24 hrs by plate reader assay; assay type: cell-based; conditions: Jurkat E6.1, 24 h
[2] = target: Class 1 histone deacetylase (Homo sapiens, UniProt Q13547+O15379+Q92769+Q9BY41); assay: Inhibition of class 1 HDAC in human Jurkat E6.1 cells using Boc-Lys(Ac)-AMC as substrate incubated for 24 hrs by plate reader assay; assay type: cell-based
[3] = Kinetic aqueous solubility of the compound in PBS buffer at pH 7.4 incubated for 2 hrs under shaking condition by LC-UV analysis; assay type: physicochemical; conditions: read-out: Kinetic_solubility
[4] = target: T2, von Hippel-Lindau disease tumor suppressor/Histone deacetylase 4 (Homo sapiens, UniProt P40337+P56524); assay: Protac activity at VHL/HDAC4 in human Jurkat E6.1 cells assessed as induction of HDAC4 degradation incubated for 24 hrs by ELISA-based MSD electrochemiluminescence assay; assay type: cell-based
T2 sequence (P56524 whole entry): as the sequence (P56524 whole entry) above
T2 sequence (P40337 whole entry): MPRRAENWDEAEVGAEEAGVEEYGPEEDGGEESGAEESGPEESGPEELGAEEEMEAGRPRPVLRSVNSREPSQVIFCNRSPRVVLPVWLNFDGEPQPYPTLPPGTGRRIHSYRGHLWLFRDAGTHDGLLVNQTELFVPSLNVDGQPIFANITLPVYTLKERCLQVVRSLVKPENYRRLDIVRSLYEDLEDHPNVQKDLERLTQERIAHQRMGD

[5] = target: T3, von Hippel-Lindau disease tumor suppressor/Histone deacetylase 4 (Homo sapiens) (UniProt P56524+P40337); assay: Protac activity at VHL/HDAC4 in human Jurkat E6.1 cells assessed as induction of HDAC4 degradation by measuring maximum degradation at 10 uM incubated for 24 hrs by ELISA-based MSD electrochemiluminescence assay relative to control; assay type: cell-based
T3 sequence (P40337 whole entry, looked up): as the sequence (P40337 whole entry) above
T3 sequence (P56524 whole entry, looked up): as the sequence (P56524 whole entry) above

Histone deacetylase 9 = Histone deacetylase 9 (Homo sapiens, UniProt Q9UKV0)
Sequence of Histone deacetylase 9 (Q9UKV0 whole entry): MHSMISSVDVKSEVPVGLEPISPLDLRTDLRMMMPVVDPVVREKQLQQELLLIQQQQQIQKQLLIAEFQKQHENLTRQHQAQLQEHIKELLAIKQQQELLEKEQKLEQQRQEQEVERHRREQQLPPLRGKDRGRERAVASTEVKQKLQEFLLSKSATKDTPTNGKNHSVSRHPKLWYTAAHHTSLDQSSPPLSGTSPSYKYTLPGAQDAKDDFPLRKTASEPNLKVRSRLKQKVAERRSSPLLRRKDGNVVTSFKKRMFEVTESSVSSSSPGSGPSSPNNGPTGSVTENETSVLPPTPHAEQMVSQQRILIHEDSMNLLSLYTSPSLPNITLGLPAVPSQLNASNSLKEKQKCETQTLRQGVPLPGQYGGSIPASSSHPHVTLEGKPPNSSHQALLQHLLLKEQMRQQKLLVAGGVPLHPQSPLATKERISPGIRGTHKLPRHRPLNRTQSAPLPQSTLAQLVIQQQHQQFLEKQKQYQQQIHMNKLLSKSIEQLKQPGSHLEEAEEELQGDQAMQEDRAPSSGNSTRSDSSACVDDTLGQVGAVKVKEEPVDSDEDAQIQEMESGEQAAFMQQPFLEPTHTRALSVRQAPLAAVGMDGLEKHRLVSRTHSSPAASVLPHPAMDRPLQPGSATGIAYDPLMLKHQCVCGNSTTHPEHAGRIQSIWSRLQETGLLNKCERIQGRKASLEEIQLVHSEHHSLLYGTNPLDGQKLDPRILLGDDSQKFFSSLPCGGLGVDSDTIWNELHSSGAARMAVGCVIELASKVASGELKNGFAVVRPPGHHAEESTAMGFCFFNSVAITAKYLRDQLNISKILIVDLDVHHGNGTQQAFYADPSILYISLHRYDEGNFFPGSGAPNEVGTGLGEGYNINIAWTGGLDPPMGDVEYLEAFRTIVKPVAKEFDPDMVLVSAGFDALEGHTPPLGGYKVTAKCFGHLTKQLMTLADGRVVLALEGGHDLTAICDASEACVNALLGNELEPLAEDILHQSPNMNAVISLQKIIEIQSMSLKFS

[6] = target: T2, von Hippel-Lindau disease tumor suppressor/Histone deacetylase 4; assay: Protac activity at VHL/HDAC4 in human Jurkat E6.1 cells assessed as induction of HDAC4 degradation incubated for 24 hrs by immunoblotting analysis; assay type: cell-based
[7] = target: T2, von Hippel-Lindau disease tumor suppressor/Histone deacetylase 4; assay: Protac activity at VHL/HDAC4 in human Jurkat E6.1 cells assessed as induction of HDAC4 degradation incubated for 24 hrs in absence of elacridar by Western blot analysis; assay type: cell-based
[8] = target: T2, von Hippel-Lindau disease tumor suppressor/Histone deacetylase 4; assay: Protac activity at VHL/HDAC4 in human Jurkat E6.1 cells assessed as induction of HDAC4 degradation preincubated with elacridar for 1 hr followed by compound addition and measured after 24 hrs by Western blot analysis; assay type: cell-based
Vhl/Hdac4 [9] = target: T4, Vhl/Hdac4 (Mus musculus, UniProt P40338+Q6NZM9); assay: Protac activity at VHL/HDAC4 in Q175 KI mouse cortical neuron assessed as induction of HDAC4 degradation incubated for 4 to 72 hrs in absence of elacridar by MSD assay; assay type: cell-based
T4 sequence (Q6NZM9 whole entry): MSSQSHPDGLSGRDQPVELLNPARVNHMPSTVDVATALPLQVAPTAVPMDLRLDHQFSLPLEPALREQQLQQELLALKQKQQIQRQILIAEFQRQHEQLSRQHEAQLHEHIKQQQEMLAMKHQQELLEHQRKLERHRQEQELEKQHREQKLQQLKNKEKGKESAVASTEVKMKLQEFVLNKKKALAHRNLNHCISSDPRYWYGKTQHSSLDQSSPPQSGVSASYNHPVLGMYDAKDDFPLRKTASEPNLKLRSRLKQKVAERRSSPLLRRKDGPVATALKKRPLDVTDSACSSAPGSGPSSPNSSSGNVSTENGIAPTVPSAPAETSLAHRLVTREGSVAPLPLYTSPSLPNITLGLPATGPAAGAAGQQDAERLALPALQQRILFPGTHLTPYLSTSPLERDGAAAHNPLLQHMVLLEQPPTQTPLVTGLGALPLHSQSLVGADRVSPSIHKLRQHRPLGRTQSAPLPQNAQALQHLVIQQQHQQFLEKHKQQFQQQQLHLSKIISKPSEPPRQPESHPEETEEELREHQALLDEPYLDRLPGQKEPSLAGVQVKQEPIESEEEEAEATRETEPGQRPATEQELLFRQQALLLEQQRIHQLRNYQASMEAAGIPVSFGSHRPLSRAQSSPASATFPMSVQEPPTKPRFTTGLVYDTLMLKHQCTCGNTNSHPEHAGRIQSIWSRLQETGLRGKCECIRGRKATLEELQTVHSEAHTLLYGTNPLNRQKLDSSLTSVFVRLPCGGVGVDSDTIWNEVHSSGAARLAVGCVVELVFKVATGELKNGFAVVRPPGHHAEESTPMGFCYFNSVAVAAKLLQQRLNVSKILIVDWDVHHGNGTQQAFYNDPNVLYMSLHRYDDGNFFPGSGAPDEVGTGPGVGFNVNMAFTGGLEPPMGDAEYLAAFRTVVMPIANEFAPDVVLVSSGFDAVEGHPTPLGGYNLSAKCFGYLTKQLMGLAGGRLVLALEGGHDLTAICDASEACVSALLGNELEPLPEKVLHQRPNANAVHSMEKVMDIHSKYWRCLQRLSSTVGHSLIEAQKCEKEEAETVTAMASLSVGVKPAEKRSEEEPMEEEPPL
T4 sequence (P40338 whole entry): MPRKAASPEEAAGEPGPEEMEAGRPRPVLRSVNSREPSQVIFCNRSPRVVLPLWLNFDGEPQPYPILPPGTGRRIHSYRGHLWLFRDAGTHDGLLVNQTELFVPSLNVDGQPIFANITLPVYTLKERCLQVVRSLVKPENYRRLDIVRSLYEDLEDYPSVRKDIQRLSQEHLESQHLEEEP

[10] = Selectivity ratio of DC50 for protac activity at VHL/HDAC4 in mouse Neuro2a cells to DC50 for protac activity at VHL/HDAC4 in human Jurkat E6.1 cells; assay type: cell-based
[11] = Apparent permeability in MDCK cells; assay type: ADME, cell-based, Canis lupus familiaris; conditions: dog
[12] = Apparent permeability in MDCK-MDR1 cells; assay type: ADME, cell-based, Canis lupus familiaris; conditions: dog
[13] = Apparent permeability in MDCK-BCRP cells; assay type: ADME, cell-based, Canis lupus familiaris; conditions: dog
[14] = Efflux ratio of apparent permeability basolateral to apical over apical to basolateral side in MDCK cells; assay type: ADME, cell-based, Canis lupus familiaris; conditions: dog
[15] = Efflux ratio of apparent permeability basolateral to apical over apical to basolateral side in MDCK-MDR1 cells; assay type: ADME, cell-based, Canis lupus familiaris; conditions: dog
[16] = Efflux ratio of apparent permeability basolateral to apical over apical to basolateral side in MDCK-BCRP cells; assay type: ADME, cell-based, Canis lupus familiaris; conditions: dog
Vhl/Hdac4 [17] = target: T4, Vhl/Hdac4; assay: Protac activity at VHL/HDAC4 in mouse Neuro2a cells assessed as induction of HDAC4 degradation incubated for 24 hrs in absence of elacridar by MSD assay
Vhl/Hdac4 [18] = target: T4, Vhl/Hdac4; assay: Protac activity at VHL/HDAC4 in mouse Neuro2a cells assessed as induction of HDAC4 degradation preincubated with elacridar for 1 hr followed by compound addition and measured after 24 hrs by MSD assay
Homo sapiens [19] = species: Homo sapiens; assay: Selectivity ratio of IC50 for inhibition of HDAC4 (unknown origin) to IC50 for inhibition of HDAC5 (unknown origin)
Homo sapiens [20] = species: Homo sapiens; assay: Selectivity ratio of IC50 for inhibition of HDAC4 (unknown origin) to IC50 for inhibition of HDAC7 (unknown origin)
Homo sapiens [21] = species: Homo sapiens; assay: Selectivity ratio of IC50 for inhibition of HDAC4 (unknown origin) to IC50 for inhibition of HDAC9 (unknown origin)
[22] = target: T3, von Hippel-Lindau disease tumor suppressor/Histone deacetylase 4 (Homo sapiens); assay: Protac activity at VHL/HDAC4 in human Jurkat E6.1 cells assessed as induction of HDAC4 degradation at 1 uM incubated for 6 hrs by immunoblotting analysis; assay type: cell-based

Structure (SMILES)	IC50 (Histone deacetylase 4) [nM]	IC50 (Histone deacetylase 5) [nM]	IC50 (Histone deacetylase 7) [nM]	IC50 [1] [nM]	IC50 [2] [nM]	solubility kinetic at 2 h [3] [µM]	EC50 [4] [nM]	Emax [5] [%]	IC50 (Histone deacetylase 9) [nM]	also measured
Cc1ncsc1-c1ccc(CNC(=O)[C@@H]2C[C@@H](O)CN2C(=O)[C@@H](NC(=O)COCCOCCOCC(F)(F)c2cnc(-c3ccc(C(C(=O)NO)c4ccccc4F)cc3)nc2)C(C)(C)C)cc1 (mixture of isomers)	410	230	210	150	> 5000	5.2	28	77	290	–
CCCN(CCCCOCCOCCOCCOCCOCC(=O)N[C@H](C(=O)N1C[C@H](O)C[C@H]1C(=O)NCc1ccc(-c2scnc2C)cc1)C(C)(C)C)C[C@@H](C)NC(=O)c1ccc(-c2noc(C(F)(F)F)n2)cc1	92	150	150	6	> 5000	144 (≈ 155 µg/mL)	4	78	94	EC50 [6]: 2 nM; EC50 [7]: 1.7 nM; EC50 [8]: 1.6 nM; EC50 (Vhl/Hdac4 [9]): 1.1 nM; Ratio EC50 [10]: 20; Papp [11]: 2.1 ×10⁻⁶ cm/s; Papp [12]: 2.6 ×10⁻⁶ cm/s; Papp [13]: 1.4 ×10⁻⁶ cm/s; Ratio [14]: 13; Ratio [15]: 7; Ratio [16]: 5; EC50 (Vhl/Hdac4 [17]): 81 nM; EC50 (Vhl/Hdac4 [18]): 2.3 nM
CCCN(CCCCOCCOCCOCCOCCOCC(=O)N[C@@H](C(=O)N1C[C@@H](O)C[C@@H]1C(=O)NCc1ccc(-c2scnc2C)cc1)C(C)(C)C)C[C@@H](C)NC(=O)c1ccc(-c2noc(C(F)(F)F)n2)cc1	150	–	–	180	> 5000	–	> 10000	50	–	–
CCCN(CCCCOCCOCCOCCOCC(=O)N[C@H](C(=O)N1C[C@H](O)C[C@H]1C(=O)NCc1ccc(-c2scnc2C)cc1)C(C)(C)C)C[C@@H](C)NC(=O)c1ccc(-c2noc(C(F)(F)F)n2)cc1	100	250	230	2	2800	132 (≈ 136 µg/mL)	4	85	220	–
CCCN(CCCCOCCOCCOCC(=O)N[C@H](C(=O)N1C[C@H](O)C[C@H]1C(=O)NCc1ccc(-c2scnc2C)cc1)C(C)(C)C)C[C@@H](C)NC(=O)c1ccc(-c2noc(C(F)(F)F)n2)cc1	90	140	220	33	4300	100 (≈ 98.7 µg/mL)	3	72	130	–
Cc1ncsc1-c1ccc(CNC(=O)[C@@H]2C[C@@H](O)CN2C(=O)[C@@H](NC(=O)COCCOCCOCCOCCOCC(F)(F)c2cnc(-c3ccc(C(C(=O)NO)c4ccccc4F)cc3)nc2)C(C)(C)C)cc1 (some centres undefined)	1100	260	250	120	> 5000	4.8 (≈ 5.04 µg/mL)	37	83	420	EC50 [6]: 11 nM; Ratio IC50 (Homo sapiens [19]): 3; Ratio IC50 (Homo sapiens [20]): 3; Ratio IC50 (Homo sapiens [21]): 3; Activity [22]: Active
Cc1ncsc1-c1ccc(CNC(=O)[C@@H]2C[C@@H](O)CN2C(=O)[C@@H](NC(=O)COCCOCCOCCOCC(F)(F)c2cnc(-c3ccc(C(C(=O)NO)c4ccccc4F)cc3)nc2)C(C)(C)C)cc1 (some centres undefined)	560	310	210	160	> 5000	5 (≈ 5.03 µg/mL)	48	82	340	–
Cc1ncsc1-c1ccc(CNC(=O)[C@@H]2C[C@H](O)CN2C(=O)[C@@H](NC(=O)COCCOCCOCCOCCOCC(F)(F)c2cnc(-c3ccc(C(C(=O)NO)c4ccccc4F)cc3)nc2)C(C)(C)C)cc1 (some centres undefined)	230	–	–	130	> 5000	4.8 (≈ 5.04 µg/mL)	> 10000	20	–	–
CCCN(CCC)C[C@@H](C)NC(=O)c1ccc(-c2noc(C(F)(F)F)n2)cc1	–	–	–	–	–	145 (≈ 57.8 µg/mL)	–	–	–	–
